The subject of one data set is C57BL/6J mice. To be noted: ~30 mg manganese/kg daily in drinking water, 4 weeks. As to the method: To assay for the protective effect of roxadustat, animals were exposed to roxadustat or vehicle with or without manganese in drinking water from ˜4 weeks of age. Treatment lasted for 4 weeks from initiation. Roxadustat (Selleckchem) was prepared as a 50 mg/ml stock solution in DMSO, then diluted to 1 mg/ml in sterile phosphate buffered saline (PBS), and delivered by daily i.p. injection at 10 mg/kg. Vehicle was 2% DMSO in PBS. For this experiment, drinking water manganese levels were adjusted to 0.138 mg absolute manganese/ml so that animals received ˜30 mg absolute manganese/kg daily. A higher level of manganese was used because exposure was initiated after weaning, which was necessary because daily i.p. injections for roxadustat delivery were not possible in the pre-weaning period.
(§1) Animals were euthanized using carbon dioxide and tissue dissected for qRT-PCR or ICPMS analyses as described by us previously (50).
Inductively coupled plasma mass spectrometry. Metal measurements using ICP-MS were performed exactly as described by us previously (47, 50, 51, 99).

The test system of another data set is SLC30A10. Particulars: HepG2 cells, 250 μM manganese, immunoblot. The procedure:
Immunoblots. HepG2 cells were cultured in 35 mm dishes, treated with or without manganese, MG132 and/or prolyl hydroxylase inhibitors, and scrapped using 200 μl of RIPA buffer (50 mM Tris-HCl, pH7.4; 150 mM NaCl; 1Mm EDTA; 1% Triton; 0.25% sodium deoxycholate; protease inhibitors cocktail (Thermo A32953)). Whole-cell lysates were prepared by adding loading buffer (50 mM Tris-HCl, pH 7.4; 2% sodium dodecyl sulfate; 10% glycerol, 0.1 M dithiothreitol; 0.01% (weight/volume) bromophenol blue) and boiling the samples for 5 min. Equal volumes of samples were loaded per lane. Further processing was as described by us previously (47). Images were quantified using ImageQuant TL software (GE).
Antibodies and chemicals. The inventors used the following commercial primary antibodies in this study: rabbit polyclonal anti-HIF1α (Abcam, Ab2185), rabbit polyclonal anti-HIF2α (Novus, NB100-122), rabbit monoclonal anti-HIF1α proline 564 (Cell signaling, 3434S), and mouse monoclonal anti-tubulin (Sigma, T5168). […] Sources of chemicals not provided elsewhere were Thermo Fisher Scientific or Sigma-Aldrich.
(In western blotting, separated proteins are transferred to a membrane and probed.)

The test system of a further data set is SLC30A10 promoter. The format is cell-based, human. An excerpt:
A luciferase reporter plasmid containing the proximal promoter of human SLC30A10 has been previously described and was a gift of Dr. Ruth Valentine (100). The promoter fragment corresponding to bases −679 to +211 relative to the start of transcription was sub-cloned into the Xho1 and SpeI sites of pRRLSIN.cPPTLuciferase.WPRE vector (Addgene, #69251), which is a luciferase vector for lentivirus infections. Deletion mutants were generated using the loop-out modification of the QuikChange protocol.
Lentiviral infections. Stable cells were generated by lentivirus infection essentially as described by us previously (49, 98). Briefly, lentivirus was produced in HEK293T cells by co-transfecting transfer plasmids described above with plasmids coding for a third generation packing system that is routinely used (pRSV-Rev, pRRE, and pCMV-VSVG) (49, 98). Viral supernatants were collected 40-48 h post-transfection. HepG2 cells for infection were plated in a 60 mm dish 24 h before infection so that cells reached a confluence of 30% on the day of infection. Collected viral supernatants were filtered through a 0.45-μm polyvinylidene difluoride filter, and cells were incubated with a 1:2 dilution of viral supernatant containing 5 μg/mL Polybrene (Santa Cruz). […]

For a further data set, the system named is SLC39A14. To be noted: oral manganese ~15 mg/kg daily from birth until 8 weeks. The procedure:
(§2) A well-characterized drinking water-based manganese exposure regimen was used to model human environmental manganese exposure by providing mice with ˜50 mg manganeseCl2.4H2O/kg body weight daily (˜15 mg absolute manganese/kg per day) from birth until 8 weeks of age. This, and related similar, dosing regimens: 1) approximate the increase in manganese exposure in humans consuming well water contaminated with 1.5 mg manganese/L, which is the median well water concentration associated with neurological deficits in children; 2) increase brain manganese levels by ˜2-3 fold, similar to human patients; 3) produce measurable neurobehavioral deficits without overt toxicity; and 4) model exposure to manganese in developmentally-sensitive early-life and adolescent periods (11). Pre-weaning manganese was delivered by pipette directly into the mouth, and post-weaning manganese was delivered in drinking water using procedures described in detail in ref. (11). In brief, pre-weaning dosing was adjusted to each animal's body weight. For this, a stock solution of 69.2 mg absolute manganese/ml prepared in milliQ water was diluted in milliQ water containing 2.5% (wt/vol) of the natural sweetener Stevia (to facilitate intake by pups), and the required manganese amount (0.2 μl manganese stock/g body weight) was delivered in a dose of ˜5-10 μl/animal. For post-weaning exposure, a 27.7 mg absolute manganese/ml stock solution was prepared in water and diluted to 0.069 mg absolute manganese/ml in drinking water, which provided mice with ˜15 mg absolute manganese/kg per day based on a daily water intake of ˜2-5 ml/mouse depending on age.
as §1
(§3) Quantitative RT-PCR assays. RNA extraction from HepG2 cells and mouse tissue, reverse transcription to cDNA, and qRT-PCR analyses were performed as described by us previously (47, 50). For analyses of mouse brain samples, a part of the midbrain, including the basal ganglia, was used. Transcript levels were quantified using the ΔΔCT method with 18S (in mice) or TBP (in HepG2 cells) as the internal control, also as described by us previously (47, 50).

The test system of another data set is SLC39A8. To be noted: oral manganese ~15 mg/kg daily from birth until 8 weeks. The procedure: as §2, §1, §3

Here are results for one molecule from patent US20230101768A1, “METHOD TO TREAT MANGANESE TOXICITY AND MANGANESE-INDUCED PA[…] HUMANS” (priority 2021, published 2023).

For `O.O.O.O.[Cl][Mn][Cl]` [manganese, manganeseCl2.4H2O], in the data set on C57BL/6J mice, the “Blood manganese after manganese treatment” value was “trend towards an increase” and the “Brain manganese levels, main effect of manganese treatment” value was “increasing”. Besides, the “SLC30A10 protein levels after manganese” value in the data set with SLC30A10 is “increased”. Besides, in the data set with SLC30A10 promoter, the “Luciferase activity after manganese” value was “increased”. Moreover, the “Hepatic and brain SLC39A14 levels” value in the data set on SLC39A14 (129S4/SvJaeJ mice) is reported as “elevated”. Also, in the data set with SLC39A14 (C57BL/6J mice), the “Intestinal SLC39A14 levels” value is “enhanced”. Also, the “Hepatic and brain SLC39A8 levels” value in the data set with SLC39A8 (129S4/SvJaeJ mice) is recorded as “elevated”. In the data set on SLC39A8 (either strain), the “Intestinal SLC39A8 levels” value was “did not change”.
